Assay results as given in patent US9464064B2, “HCV helicase inhibitors and methods of use thereof” (University of Kansas, priority 2011, dated 2016).
Starred links: 1 amine or outer side, 2 acyl side, 3 side chain; linkers in the order of their positions; H or OH if unused. Positions of bridges follow the written chain, without caps; N, C: chain ends. Non-standard residues stand in square brackets, D forms with d. Residues, ends and D or L forms follow the SMILES beside them. Chains are numbered I, II in the order given. Actinocin(1to9) = Cc1c2oc3c(C)ccc(C(=O)[*:2])c3nc-2c(C(=O)[*:1])c(N)c1=O; NMeV = CN[C@H](C(=O)O)C(C)C; Sar = CNCC(=O)O

Biological target: T1, HCV NS3 helicase NS3h_1b(con1) (Hepatitis C virus genotype 1b, UniProt Q9WMX2)
T1 construct: truncated C-terminally His-tagged NS3 proteins lacking the N-terminal protease, called NS3h; His-tag (C); made in house
Experiment: MBHA screen of NCI mechanistic set library at 20 μM (percent inhibition, compound interference)
Assay type: biochemical
Settings: compounds at 20 μM; for Inh. (%) (Inhibition): calculated from Equation 1
Method: All molecular beacon-based helicase assays (MBHAs) were performed according to known methods (Belon & Frick (2008) supra; Belon & Frick (2009) supra). […] In each flat, black 384-well plate, 56 compounds were tested, in triplicate, along with three negative controls (DMSO only), three positive controls (500 nM dT20), and two wells with no enzyme. Fluorescence was read before ATP (F0) addition and 30 minutes after ATP was added to 1 mM (F30) using a Tecan Infinite M200 fluorescence microplate reader with excitation and emission wavelengths set to 643 and 670 nm, respectively. Percent inhibition was calculated with equation 1, and compound interference in the MBHA was calculated with equation 2.
In Equations 1 and 2, Fc0 is the fluorescence of the reactions containing the test compound before adding ATP, Fc30 is the fluorescence of the test compound reaction 30 minutes after adding ATP. F(−)0 is the average of three DMSO-only negative control reactions before adding ATP and F(−)30 is the average of three DMSO-only reactions 30 minutes after adding ATP.
To identify HCV helicase inhibitors, the MBHA was first used to screen the National Cancer Institute Developmental Therapeutics Program's mechanistic set library. In total, 827 compounds (at 20 μM) were screened using a MBHA with a DNA substrate (Table 1). Compounds were ranked by their ability to inhibit HCV helicase-catalyzed DNA unwinding as calculated from Equation 1.
Compound interference in the MBHA was evaluated by comparing the fluorescence of reactions containing each compound to the fluorescence of DMSO-only negative controls before ATP was added.

[1] = MBHA with DNA substrate, assay interference calculated with Equation 2
[2] = assay interference calculated with Equation 2 (fluorescence vs DMSO-only controls before ATP)

T1 sequence (Q9WMX2 1192-1657): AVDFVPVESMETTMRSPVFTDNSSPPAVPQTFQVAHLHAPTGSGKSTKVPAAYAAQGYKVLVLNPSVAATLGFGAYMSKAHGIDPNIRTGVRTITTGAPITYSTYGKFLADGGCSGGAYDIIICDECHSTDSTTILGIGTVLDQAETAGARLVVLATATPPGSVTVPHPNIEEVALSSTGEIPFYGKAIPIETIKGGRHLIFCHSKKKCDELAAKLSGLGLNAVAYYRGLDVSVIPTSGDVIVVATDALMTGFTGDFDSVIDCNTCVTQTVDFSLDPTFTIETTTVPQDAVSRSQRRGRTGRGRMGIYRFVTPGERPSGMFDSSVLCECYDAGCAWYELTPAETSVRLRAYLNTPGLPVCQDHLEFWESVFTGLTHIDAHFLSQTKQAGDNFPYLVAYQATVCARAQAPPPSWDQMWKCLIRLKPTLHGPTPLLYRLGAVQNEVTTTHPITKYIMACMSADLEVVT

SMILES	Int.* (Ratio) (Interference) [1]	Inh. (%) (Inhibition) (MBHA with DNA substrate)	Inh. (%) (Inhibition) (MBHA with a DNA substrate)	Int.* (Ratio) (Interference) [2]
CC[C@H](C)[C@@H]1NC(=O)[C@@H](NC(=O)c2c3nc4c(C(=O)N[C@@H]5C(=O)N[C@@H](C(C)C)C(=O)N6CCC[C@H]6C(=O)N(C)CC(=O)N(C)[C@@H](C(C)C)C(=O)O[C@@H]5C)ccc(C)c4oc-3c(C)c(=O)c2N)[C@@H](C)OC(=O)[C@H](C(C)C)N(C)C(=O)CN(C)C(=O)[C@@H]2CCCN2C1=O [Compound 18268] (I: TIP[Sar][NMeV] / II: TVP[Sar][NMeV]; ester I:1-I:C, II:1-II:C; linker I:N-II:N via Actinocin(1to9))	0.61 Ratio	27.6%	–	–
CC(C)c1cccc(O)c(=O)c1 [Compound 18804]	0.97 Ratio	15.2%	–	–
CC(C)c1ccc(O)c(=O)cc1 [Compound 18805]	0.98 Ratio	31.0%	–	–
CN(C)CCCN1c2ccccc2Sc2ccc3ccccc3c21 [Compound 18891]	–	–	−4.0%	0.89 Ratio
CCCCCCCCCCCCC(O)C(=O)O (stereo not drawn) [Compound 18938]	1.06 Ratio	1.7%	–	–
CCN(CC)CCOc1ccc(C(O)(Cc2ccc(OC)cc2)c2ccccc2)cc1 (stereo not drawn) [Compound 19857]	–	–	7.4%	1.05 Ratio
COC(=O)C1C(O)C(C)C(O)C(C)/C=C\C=C(C)C(=O)Nc2c(C)c(OC(C)=O)c3c(c2O)C(=O)C(C)=C2OCOC(=C23)C(C)=CC(C)(O)C(O)C(C)C1O (stereo not drawn) [Compound 19990]	0.96 Ratio	25.1%	–	–
Nc1nc2c(ncn2[C@@H]2O[C@H](CO)[C@@H](O)[C@H]2O)c(=O)[nH]1 [Compound 19994]	–	–	10.4%	1.05 Ratio
CCCCOCc1cc(CN2CCN(C)CC2)c(O)c2ncccc12 [Compound 20514]	–	–	−19.2%	1.06 Ratio
CCN(CCO)CCNc1ccc(C)c2sc3ccccc3c(=O)c12 [Compound 20534]	0.96 Ratio	15.7%	–	–
Cc1cn(C2CC(O)C(CO)O2)c(=O)[nH]c1=O (stereo not drawn) [Compound 21548]	0.98 Ratio	2.1%	–	–
O=c1oc2cc(O)ccc2c2oc3cc(O)ccc3c12 [Compound 22842]	1.10 Ratio	1.5%	–	–
CC(CN(C)C)C(=O)c1ccccc1C(=O)O (stereo not drawn) [Compound 22992]	0.86 Ratio	25.9%	–	–
CN(CCc1ccccn1)c1ccc2c(c1)C(=O)c1ccccc1-2 [Compound 24048]	1.11 Ratio	−12.7%	–	–
CN(C)CCCN1c2ccc3ccccc3c2Sc2cccc(Cl)c21 [Compound 24113]	–	–	11.0%	0.81 Ratio
CO[C@H](C(=O)[C@@H](O)[C@@H](C)O)[C@@H]1Cc2cc3cc(O[C@H]4C[C@@H](O[C@H]5C[C@@H](O)[C@H](O)[C@@H](C)O5)[C@H](O)[C@@H](C)O4)c(C)c(O)c3c(O)c2C(=O)[C@H]1O[C@H]1C[C@@H](O[C@H]2C[C@@H](O[C@H]3C[C@](C)(O)[C@H](O)[C@@H](C)O3)[C@@H](O)[C@@H](C)O2)[C@H](O)[C@@H](C)O1 [Compound 24559]	0.91 Ratio	36.0%	–	–
COc1cc([C@@H]2c3cc4c(c(O)c3C[C@H]3COC(=O)[C@@H]32)OCO4)cc(OC)c1O [Compound 24817]	0.99 Ratio	15.4%	–	–
COc1cc(C2c3cc4c(cc3C(O)C3COC(=O)C23)OCO4)cc(OC)c1OC (stereo not drawn) [Compound 24818]	1.07 Ratio	−2.7%	–	–
COc1cc([C@@H]2c3cc4c(c(O)c3C[C@H]3COC(=O)[C@@H]32)OCO4)cc(OC)c1OC [Compound 24819]	1.12 Ratio	−0.3%	–	–
CC(C)C1=CC2=CC[C@@H]3[C@](C)(CCC[C@@]3(C)C(=O)O)[C@H]2CC1 [Compound 25149]	0.93 Ratio	−11.6%	–	–
OC(CN1CCCCC1)c1ccc(/C=C/c2ccc(Cl)cc2)cc1 (stereo not drawn) [Compound 26040]	0.97 Ratio	−17.0%	–	–
O=C1Nc2c(Cl)cc(Cl)cc2C1=O [Compound 26045]	0.92 Ratio	−13.7%	–	–
OCC1OC(n2cnc3c(SCc4ccccc4)ncnc32)C(O)C1O (stereo not drawn) [Compound 26273]	–	–	−6.4%	0.89 Ratio
Cc1c2ccc3ccccc3c2c[n+]2ccccc12.[Cl-] [Compound 28002]	1.08 Ratio	27.1%	–	–
O=C([O][Hg][CH2]C1COC([CH2][Hg][O]C(=O)c2ccccc2)CO1)c1ccccc1 (stereo not drawn) [Compound 30916]	0.93 Ratio	19.0%	–	–
CC[C@H]1CN2CCc3cc(OC)c(OC)cc3[C@@H]2C[C@@H]1C[C@H]1NCCc2cc(O)c(OC)cc21 [Compound 32944]	–	–	−28.9%	1.02 Ratio
CC(/C=N/N=C(N)N)=N\N=C(N)N [Compound 32946]	1.07 Ratio	−13.6%	–	–

Further lines, results first:

Int.* (Ratio) (Interference) [1]	Inh. (%) (Inhibition) (MBHA with DNA substrate)	Inh. (%) (Inhibition) (MBHA with a DNA substrate)	Int.* (Ratio) (Interference) [2]	SMILES
–	–	−5.0%	0.99 Ratio	Cl.Nc1nc(N)c2ncn(-c3ccccc3)c2n1 [Compound 29603]
0.92 Ratio	−9.7%	–	–	Nc1ccc2nc3ccc(=O)cc-3n(-c3ccccc3)c2c1 [Compound 31702]
1.01 Ratio	3.7%	–	–	NC(=O)NO [Compound 32065]
0.90 Ratio	15.0%	–	–	COc1cc(/C=C/C(=O)CC(=O)/C=C/c2ccc(O)c(OC)c2)ccc1O [Compound 32982]
–	–	−28.7%	1.04 Ratio	COc1c(O[C@@H]2O[C@H](CO)[C@@H](O)[C@H](O)[C@H]2O)cc2c(c1OC)-c1ccc(OC)c(=O)cc1[C@@H](NC(C)=O)CC2 [Compound 32992]
1.00 Ratio	−0.9%	–	–	Oc1ccc(-c2nc3ccccc3s2)cc1 [Compound 33004]
0.89 Ratio	15.9%	–	–	CC(=O)Nc1ccc(-c2nc3ccccc3s2)cc1 [Compound 33006]
–	–	−28.8%	1.16 Ratio	COc1cc2c(c(OC)c1OC)-c1ccc(OC)c(=O)cc1[C@@H](NC(=O)c1ccccc1)CC2 [Compound 33410]
0.24 Ratio	100.6%	–	–	CCN1C=C/C(=C\C=C\c2cc[n+](CC)c3ccccc23)c2ccccc21.[I-] [Compound 34391]
0.98 Ratio	−7.4%	–	–	COc1c2c(c(OC)c3c1c(=O)c1ccccc1n3C)OCO2 [Compound 34757]
0.90 Ratio	89.2%	–	–	O=S(=O)(O)c1cc(N=Nc2cc(S(=O)(=O)O)c3ccccc3c2O)ccc1/C=C/c1ccc(N=Nc2cc(S(=O)(=O)O)c3ccccc3c2O)cc1S(=O)(=O)O.[Na+] [Compound 34931]
1.04 Ratio	18.7%	–	–	O=C(C[n+]1ccc2ccccc2c1)c1ccc2ccc3ccccc3c2c1 [Compound 35489]
0.93 Ratio	15.3%	–	–	Nc1nc(SCCc2ccccc2)c2[nH]cnc2n1 [Compound 35866]
1.25 Ratio	−8.9%	–	–	O=S1(=O)CCN(c2ccccc2CC(c2c[nH]c3ccccc23)c2c[nH]c3ccccc23)CC1 [Compound 35949]
0.99 Ratio	−17.3%	–	–	C=C1C(=O)OC2CC1C(OC(C)=O)C/C(C)=C/CC/C(C)=C\CCC2(C)O (stereo not drawn) [Compound 36437]
0.76 Ratio	−8.8%	–	–	C[C@@H]1C[C@H]2OC(=O)[C@@]3(C)CCC[C@@](C)([C@@H]23)[C@@]1(O)CCc1ccoc1 [Compound 36693]
0.98 Ratio	3.4%	–	–	Nc1nc(SCc2ccccc2Cl)c2[nH]cnc2n1 [Compound 36826]
1.01 Ratio	16.5%	–	–	COc1nc(N)nc2nc[nH]c12 [Compound 37364]
0.93 Ratio	0.3%	–	–	Clc1ccc(C(c2ccccc2Cl)C(Cl)Cl)cc1 (stereo not drawn) [Compound 38721]
0.91 Ratio	4.5%	–	–	O=C1C(CN2CCCCC2)CCCC1CN1CCCCC1 (stereo not drawn) [Compound 39202]
0.95 Ratio	1.1%	–	–	Cc1nc(Cl)c(C)c(Cl)n1 [Compound 40212]
